Reference: patent US20050085463A1 (priority 2003, published 2005)
“And” between values parts separate entries of the source, which are not always exact repeats. Equal values may be shown once.

How the values were obtained:
M3 muscarinic receptor = M3 muscarinic receptor (Homo sapiens, UniProt P20309); assay: R-SAT competitive antagonist assay; type: cell-based; conditions: nr = no significant antagonist or inverse agonist activity up to 1 μM, nr* = nr but significant agonist activity, read-out: pKi M3, competitive antagonist (converted)
D25 receptors = D25 receptors (Homo sapiens, UniProt P14416); assay: Ligand binding screen at 10 μM
δ2 receptors = δ2 receptors (Homo sapiens, UniProt P41143); assay: Ligand binding screen at 10 μM
5HT3 receptors = 5HT3 receptors (Homo sapiens, UniProt P46098); assay: Ligand binding screen at 10 μM
spontaneous activity = assay: Spontaneous locomotion; type: in vivo, Non-Swiss Albino (NSA) mice; conditions: 10 mg/kg s.c.; maintained for 120 minutes
[1] = Brain-to-plasma ratio in rats; type: in vivo; conditions: male, Sprague-Dawley, rat, po, 10 mg/kg, brain-to-plasma ratio of NDMC
Procedure: The pharmacokinetics of clozapine and N-desmethylclozapine (NDMC) was evaluated in rats after intravenous (i.v.) and oral (p.o.) dosing. Cmax, Tmax and bioavailability after p.o. dosing and the volume of distribution (Vss), terminal plasma half-life (T1/2) and clearance (CLs) after i.v. dosing were determined. […] Animals were euthanised and brain and plasma samples obtained at 60 or 240 minutes post-dose, depending on study group. The levels of NDMC and clozapine were measured in each sample.
The pharmacokinetic study described above included an initial assessment of the distribution of NDMC into brain.

[2] = Serum levels during clozapine treatment of schizophrenic patients; type: in vivo, human
Procedure: The analysis was adjusted for baseline level of symptom severity, age, and dose, since dose was not fixed. […] Regarding co-treatment with anticholinergic agents, only two subjects in this sample were treated with benztropine. […] Lastly, ten of the patients in this study were treated with benzodiazepines at the time the levels of clozapine and NDMC were measured.
Patients were classified as treatment resistant or not by standard criteria (Kane et al 1988), and clinical ratings and neuropsychological test scores were obtained by trained raters who were blinded to plasma drug levels.

D3 dopamine receptor = D3 dopamine receptor (Homo sapiens, UniProt P35462); conditions: R-SAT; nr = no significant antagonist or inverse agonist activity up to 1 μM; nr* = nr but significant agonist activity
5-HT6A receptor = 5-HT6A receptor (Homo sapiens, UniProt P50406); assay: R-SAT inverse agonist assay
[3] = target: α2A (Alpha 2A) adrenergic receptor (Homo sapiens, UniProt P08913); assay: R-SAT competitive antagonist assay; conditions: nr = no significant antagonist or inverse agonist activity up to 1 μM, nr* = nr but significant agonist activity
M4 muscarinic receptor = target: T1, M4 muscarinic receptor (Homo sapiens, UniProt P08173); assay: R-SAT agonist assay; type: cell-based; set-up: expressed in transfected cells; host or cells: NIH/3T3; conditions: relative to carbachol, No response/nr = no agonist activity up to 10 μM
T1 sequence (P08173 1-479): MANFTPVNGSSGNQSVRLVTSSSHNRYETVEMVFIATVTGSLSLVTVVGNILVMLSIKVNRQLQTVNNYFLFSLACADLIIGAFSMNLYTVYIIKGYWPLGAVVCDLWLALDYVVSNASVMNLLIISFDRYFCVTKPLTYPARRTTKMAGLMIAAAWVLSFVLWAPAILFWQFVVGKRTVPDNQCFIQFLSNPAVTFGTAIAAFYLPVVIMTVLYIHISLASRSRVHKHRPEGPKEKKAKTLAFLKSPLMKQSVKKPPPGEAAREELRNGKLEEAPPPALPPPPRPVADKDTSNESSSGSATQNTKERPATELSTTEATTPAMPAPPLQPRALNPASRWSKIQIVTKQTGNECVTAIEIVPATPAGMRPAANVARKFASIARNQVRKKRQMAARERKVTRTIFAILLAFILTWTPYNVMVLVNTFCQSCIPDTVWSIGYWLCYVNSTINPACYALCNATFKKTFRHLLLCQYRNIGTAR

M5 muscarinic receptor = target: T2, M5 muscarinic receptor (Homo sapiens, UniProt P08912); assay: R-SAT agonist assay; type: cell-based; set-up: expressed in transfected cells; host or cells: NIH/3T3
T2 sequence (P08912 1-532): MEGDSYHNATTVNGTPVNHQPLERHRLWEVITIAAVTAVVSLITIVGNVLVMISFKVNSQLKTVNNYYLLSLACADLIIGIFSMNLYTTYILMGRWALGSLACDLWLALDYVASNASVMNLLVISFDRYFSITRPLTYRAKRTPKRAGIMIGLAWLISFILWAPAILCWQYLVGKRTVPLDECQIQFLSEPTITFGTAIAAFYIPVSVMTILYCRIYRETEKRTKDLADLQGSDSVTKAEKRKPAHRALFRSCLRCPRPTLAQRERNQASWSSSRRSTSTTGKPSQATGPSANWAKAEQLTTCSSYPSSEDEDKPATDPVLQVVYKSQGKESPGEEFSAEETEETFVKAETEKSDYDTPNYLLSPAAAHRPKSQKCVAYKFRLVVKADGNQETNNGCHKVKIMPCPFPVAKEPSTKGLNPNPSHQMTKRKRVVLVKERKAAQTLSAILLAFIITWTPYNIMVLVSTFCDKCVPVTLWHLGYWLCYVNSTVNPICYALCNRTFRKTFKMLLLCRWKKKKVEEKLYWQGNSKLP

[4] = clozapine-treated schizophrenics
[5] = clozapine-treated treatment resistant schizophrenics

D3 dopamine receptor, sequence (P35462 whole entry): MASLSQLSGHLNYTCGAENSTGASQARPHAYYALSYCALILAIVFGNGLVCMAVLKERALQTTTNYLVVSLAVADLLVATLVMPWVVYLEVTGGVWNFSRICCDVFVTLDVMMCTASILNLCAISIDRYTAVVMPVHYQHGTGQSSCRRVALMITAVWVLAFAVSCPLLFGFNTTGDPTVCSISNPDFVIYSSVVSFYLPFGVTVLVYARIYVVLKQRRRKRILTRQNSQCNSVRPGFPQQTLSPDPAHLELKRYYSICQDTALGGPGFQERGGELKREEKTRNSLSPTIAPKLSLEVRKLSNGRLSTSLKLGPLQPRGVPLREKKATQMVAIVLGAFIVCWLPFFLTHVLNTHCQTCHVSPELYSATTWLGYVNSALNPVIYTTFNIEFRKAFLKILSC
5-HT6A receptor, sequence (P50406 whole entry): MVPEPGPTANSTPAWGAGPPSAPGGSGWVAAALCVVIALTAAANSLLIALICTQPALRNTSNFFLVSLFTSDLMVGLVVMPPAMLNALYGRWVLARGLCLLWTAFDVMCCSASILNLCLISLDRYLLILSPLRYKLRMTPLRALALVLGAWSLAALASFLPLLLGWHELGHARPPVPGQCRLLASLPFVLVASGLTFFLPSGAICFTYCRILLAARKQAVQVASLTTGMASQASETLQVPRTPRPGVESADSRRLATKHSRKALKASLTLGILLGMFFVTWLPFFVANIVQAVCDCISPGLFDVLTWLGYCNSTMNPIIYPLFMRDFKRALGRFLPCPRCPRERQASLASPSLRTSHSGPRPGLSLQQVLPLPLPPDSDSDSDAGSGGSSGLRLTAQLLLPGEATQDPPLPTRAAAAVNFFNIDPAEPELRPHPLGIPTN
α2A (Alpha 2A) adrenergic receptor, sequence (P08913 whole entry): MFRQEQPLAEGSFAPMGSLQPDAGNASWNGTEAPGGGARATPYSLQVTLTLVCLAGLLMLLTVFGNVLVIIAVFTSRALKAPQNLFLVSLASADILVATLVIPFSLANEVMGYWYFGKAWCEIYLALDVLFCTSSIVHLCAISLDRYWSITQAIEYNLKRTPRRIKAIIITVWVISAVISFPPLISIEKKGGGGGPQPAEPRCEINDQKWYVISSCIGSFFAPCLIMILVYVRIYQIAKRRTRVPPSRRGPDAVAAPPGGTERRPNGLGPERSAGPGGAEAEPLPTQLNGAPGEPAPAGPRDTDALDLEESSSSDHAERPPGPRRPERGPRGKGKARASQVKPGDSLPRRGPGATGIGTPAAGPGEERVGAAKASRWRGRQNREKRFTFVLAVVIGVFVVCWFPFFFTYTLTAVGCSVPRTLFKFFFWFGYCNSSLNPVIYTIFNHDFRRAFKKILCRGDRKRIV
M3 muscarinic receptor, sequence (P20309 whole entry): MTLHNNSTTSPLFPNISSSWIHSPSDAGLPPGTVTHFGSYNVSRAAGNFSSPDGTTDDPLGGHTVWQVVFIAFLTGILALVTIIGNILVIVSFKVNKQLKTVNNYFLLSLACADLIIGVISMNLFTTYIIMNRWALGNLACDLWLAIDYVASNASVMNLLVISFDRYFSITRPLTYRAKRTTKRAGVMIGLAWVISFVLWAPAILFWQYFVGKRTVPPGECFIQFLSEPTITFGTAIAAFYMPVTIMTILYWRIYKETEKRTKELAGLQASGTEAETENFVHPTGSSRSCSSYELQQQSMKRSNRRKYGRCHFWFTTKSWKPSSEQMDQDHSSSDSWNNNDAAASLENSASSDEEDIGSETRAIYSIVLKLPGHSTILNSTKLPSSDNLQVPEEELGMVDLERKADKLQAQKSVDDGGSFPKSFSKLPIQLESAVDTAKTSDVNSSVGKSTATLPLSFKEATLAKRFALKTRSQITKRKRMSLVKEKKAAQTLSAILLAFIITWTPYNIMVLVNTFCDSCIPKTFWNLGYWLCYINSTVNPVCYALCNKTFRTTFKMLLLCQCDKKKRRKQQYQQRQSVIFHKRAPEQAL
δ2 receptors, sequence (P41143 whole entry): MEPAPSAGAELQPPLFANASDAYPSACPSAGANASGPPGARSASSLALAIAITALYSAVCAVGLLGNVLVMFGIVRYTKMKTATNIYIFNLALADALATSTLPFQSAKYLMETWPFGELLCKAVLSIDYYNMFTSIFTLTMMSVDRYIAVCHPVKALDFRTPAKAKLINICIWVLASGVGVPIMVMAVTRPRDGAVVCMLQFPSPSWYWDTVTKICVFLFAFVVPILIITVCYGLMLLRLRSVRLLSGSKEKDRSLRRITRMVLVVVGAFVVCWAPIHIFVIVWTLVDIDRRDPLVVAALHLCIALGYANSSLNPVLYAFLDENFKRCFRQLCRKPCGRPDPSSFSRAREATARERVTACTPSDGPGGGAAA
D25 receptors, sequence (P14416 1-414 isoform P14416-2): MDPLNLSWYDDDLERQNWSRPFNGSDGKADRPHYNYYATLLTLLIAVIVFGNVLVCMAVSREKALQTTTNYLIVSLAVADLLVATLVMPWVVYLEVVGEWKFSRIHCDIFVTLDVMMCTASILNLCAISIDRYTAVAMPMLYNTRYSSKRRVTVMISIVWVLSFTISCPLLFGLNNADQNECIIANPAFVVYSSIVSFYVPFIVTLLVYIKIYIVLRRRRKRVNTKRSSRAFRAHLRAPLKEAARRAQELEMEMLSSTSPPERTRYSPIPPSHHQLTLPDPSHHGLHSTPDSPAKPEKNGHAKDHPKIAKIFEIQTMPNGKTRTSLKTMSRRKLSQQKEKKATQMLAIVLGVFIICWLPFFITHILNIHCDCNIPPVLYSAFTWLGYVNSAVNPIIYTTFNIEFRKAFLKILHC
5HT3 receptors, sequence (P46098 24-478): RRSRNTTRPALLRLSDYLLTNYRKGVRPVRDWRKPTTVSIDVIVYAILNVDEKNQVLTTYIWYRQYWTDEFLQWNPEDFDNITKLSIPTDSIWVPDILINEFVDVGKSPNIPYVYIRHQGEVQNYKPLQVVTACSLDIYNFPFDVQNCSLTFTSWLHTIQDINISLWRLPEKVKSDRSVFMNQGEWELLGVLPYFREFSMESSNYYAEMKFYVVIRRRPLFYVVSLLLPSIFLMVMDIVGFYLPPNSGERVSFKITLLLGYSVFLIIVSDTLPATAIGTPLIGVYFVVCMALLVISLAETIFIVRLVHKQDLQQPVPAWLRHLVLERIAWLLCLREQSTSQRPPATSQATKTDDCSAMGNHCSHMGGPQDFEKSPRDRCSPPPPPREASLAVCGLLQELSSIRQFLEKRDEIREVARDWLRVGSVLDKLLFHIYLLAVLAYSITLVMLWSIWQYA

Clc1ccc2c(c1)N=C(N1CCNCC1)c1ccccc1N2 [NDMC, 8-chloro-11-(1-piperazinyl)-5H-dibenzo [b,e][1,4] diazepine]
Ki (M3 muscarinic receptor): 158 nM
inhibition at 10 µM (D25 receptors): ≥ 90%
inhibition at 10 µM (δ2 receptors): ≥ 90%
inhibition at 10 µM (5HT3 receptors): ≥ 90%
time of maximal reduction of spontaneous activity (spontaneous activity): 30 min
Kp at 1 h ([1]; 60 minutes after oral 10 mg/kg NDMC): 0.36 ± 0.16
Kp at 1 h ([1]; 60 minutes after oral clozapine): 0.26 ± 0.07
Kp at 4 h ([1]; 240 minutes after oral 10 mg/kg NDMC): 1 ± 0.4
Kp at 4 h ([1]; 240 minutes after oral clozapine): 2.6 ± 0.8
Serum level, All Subjects at 6 Months (92) [2, 4]: 235 ± 190 ng/mL
Serum level, All Subjects at 6 Weeks (86) [2, 4]: 194 ± 136 ng/mL
Serum level, Non-Responders (25) [2, 5]: 171 ± 123 ng/mL
Serum level, Responders (26) [2, 5]: 308 ± 243 ng/mL
Serum level, All TR Subjects (59) ([2]; clozapine-treated treatment resistant schizophrenics, drawn 12 hours after last clozapine dose): 260 ± 203 ng/mL
pKi D3, competitive antagonist (D3 dopamine receptor): nr and nr^
EC50 (5-HT6A receptor): 126 nM
pEC50 5HT6A, inverse agonist (5-HT6A receptor; R-SAT, nr = no significant antagonist or inverse agonist activity up to 1 μM): 6.9 ± 0.1
pKi α2A, competitive antagonist [3]: nr and nr^
M4 Efficacy (M4 muscarinic receptor): 87 ± 8%
EC50 (M5 muscarinic receptor; R-SAT agonist, read-out: M5 pEC50 (converted)): 23.4 nM and 25.1 nM
M5 Efficacy (M5 muscarinic receptor; R-SAT, relative to carbachol, No response/nr = no agonist activity up to 10 μM): 48 ± 6%
Ki (M5 muscarinic receptor; functional pharmacological screen, read-out: Ki, partial agonist of M5): 25 nM
